Assay results published in US20240140944A1, “NOVEL NAPHTHYRIDINONE DERIVATIVE HAVING INHIBITORY ACTIVITY AGAINST ECTONUCLEOTIDE PYROPHOSPHATASE-PHOSPHODIESTERASE AND USE THEREOF” (TXINNO BIOSCIENCE INC., priority 2020, published 2024).
Structures can show the parent of a compound that is named as a salt.

Experiments:
[1] = biological target: T1, human recombinant ENPP1 enzymes (Homo sapiens, UniProt P22413); test: ENPP1 Enzyme Assay with cGAMP Substrate (AMP-Glo); type: biochemical; settings: human recombinant ENPP1 3 ng/reaction, cGAMP 5 μM, 37° C. 90 minutes, average of two or more tests; read-out: Enzymatic activity IC50
T1 construct: purchased R & D systems
T1 sequence (P22413 1-925): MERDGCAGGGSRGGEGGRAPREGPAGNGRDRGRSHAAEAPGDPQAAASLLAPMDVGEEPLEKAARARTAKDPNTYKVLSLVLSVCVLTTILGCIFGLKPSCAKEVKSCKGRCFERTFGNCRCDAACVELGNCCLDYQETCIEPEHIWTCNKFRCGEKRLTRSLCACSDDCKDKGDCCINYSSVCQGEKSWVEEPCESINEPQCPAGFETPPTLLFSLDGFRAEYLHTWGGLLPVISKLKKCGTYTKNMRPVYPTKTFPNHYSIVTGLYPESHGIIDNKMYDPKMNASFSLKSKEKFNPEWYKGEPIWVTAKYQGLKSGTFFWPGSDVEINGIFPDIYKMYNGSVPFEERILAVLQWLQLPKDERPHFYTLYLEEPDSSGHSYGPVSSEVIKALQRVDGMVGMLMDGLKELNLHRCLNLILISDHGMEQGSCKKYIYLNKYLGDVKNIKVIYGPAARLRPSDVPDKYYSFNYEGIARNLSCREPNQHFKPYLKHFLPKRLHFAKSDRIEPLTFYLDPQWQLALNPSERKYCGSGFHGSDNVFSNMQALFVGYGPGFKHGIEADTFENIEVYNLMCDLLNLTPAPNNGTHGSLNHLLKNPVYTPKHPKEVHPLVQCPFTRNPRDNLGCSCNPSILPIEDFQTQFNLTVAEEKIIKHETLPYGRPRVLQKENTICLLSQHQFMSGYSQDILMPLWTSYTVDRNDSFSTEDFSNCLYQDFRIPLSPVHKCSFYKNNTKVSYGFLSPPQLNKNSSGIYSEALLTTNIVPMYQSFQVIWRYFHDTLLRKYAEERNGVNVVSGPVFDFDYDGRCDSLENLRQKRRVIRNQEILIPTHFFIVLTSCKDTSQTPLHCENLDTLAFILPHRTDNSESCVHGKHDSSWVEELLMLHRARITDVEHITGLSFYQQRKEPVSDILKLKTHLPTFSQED
Outline: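 Human recombinant ENPP1 (3 ng/reaction) preincubated 5–10 min at RT with inhibitor, then reacted with 5 µM cGAMP for 90 min at 37 °C in 50 mM Tris pH 8.5, 250 mM NaCl, 0.5 mM CaCl2, 1 µM ZnCl2, 1% DMSO. AMP produced read by AMP-Glo luminescence; IC50 from 3-parameter fit, averaged over ≥2 runs.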

[2] = tested on: interferon regulatory factor 3 (IRF3) in HCT116-Dual cells; test: HCT116-Dual Cell Luciferase Assay (ISG54 promoter, IRF3 activity); type: cell-based; settings: ENPP1 inhibitor usually 10 μM plus cGAMP 10 μM, 48 hours, Lucia luciferase
Description: HCT116-Dual™ cells express genes encoding luciferase secreted under the control of the interferon-stimulated gene 54 (ISG54) promoter along with five interferon-stimulated response elements. The HCT116-Dual™ cell line was used to measure and monitor the activity of interferon regulatory factor 3 (IRF3), which induces production of type I interferon and relates to downstream signaling, and Lucia secreted in the culture medium was used to generate luminescence in a luciferase reaction.
HCT116-Dual™ cells were cultured at 2×10^4 cells/well (93.4 μL) in a 96-well plate for one day in a DMEM medium containing 10% FBS and 25 mM HEPES (pH 7.2-7.5). The cells were treated with 3.3 μL of ENPP1 inhibitor (usually 10 μM) and then 3.3 μL of cGAMP (10 μM) to set the final volume to 100 μL (The final fraction of DMSO was 0.1%). The cells treated with ENPP1 inhibitor and cGAMP were cultured at 37° C. for 48 hours and 50 μL of Quanti-Luc reaction solution was added to 20 μL of cell culture medium to measure luciferase activity. The increase in interferon regulatory factor 3 (IRF3) by the compound compared to cGAMP was determined as fold.

Row | Compound | IC50 [1] [nM] | Cellular activity: increase in IRF3 by the compound compared to cGAMP, as fold [2]
1 | NS(=O)(=O)NCc1cccc(-c2ccnc3[nH]c(=O)ccc23)c1 [Example 37, N-(3-(7-oxo-7,8-dihydro-1,8-naphthyridin-4-yl)benzyl)sulfamide] | < 1000 | B (1< Fold <2)
2 | NS(=O)(=O)NCc1ccc(-c2ccnc3c2CCC(=O)N3)cc1F [Example 142, N-(2-fluoro-4-(7-oxo-5,6,7,8-tetrahydro-1,8-naphthyridin-4-yl)benzyl)sulfamide] | < 1000 | B (1< Fold <2)
3 | NS(=O)(=O)NCc1ccc(-c2ccnc3[nH]c(=O)ccc23)c(F)c1F [Example 43, N-(2,3-difluoro-4-(7-oxo-7,8-dihydro-1,8-naphthyridin-4-yl)benzyl)sulfamide hydrochloride] | < 1000 | B (1< Fold <2)
4 | NS(=O)(=O)N1CCc2ccc(-c3ccnc4[nH]c(=O)ccc34)cc2C1 [Example 65, 7-(7-oxo-7,8-dihydro-1,8-naphthyridin-4-yl)dihydroisoquinoline-2(1H)-sulfamide hydrochloride] | < 1000 | B (1< Fold <2)
5 | CC(C)NCc1ccc(-c2ccnc3[nH]c(=O)ccc23)c(F)c1.Cl [Example 21, 5-(2-fluoro-4-((isopropylamine)methyl)phenyl)-1,8-naphthyridin-2(1H)-one hydrochloride] | > 10000 | B (1< Fold <2)
6 | Cl.NS(=O)(=O)N(Cc1ccc(-c2ccnc3[nH]c(=O)ccc23)c(F)c1)C1CC1 [Example 58, N-cyclopropyl-N-(3-fluoro-4-(7-oxo-7,8-dihydro-1,8-naphthyridin-4-yl)benzyl)sulfamide hydrochloride] | < 1000 | B (1< Fold <2)
7 | CCN(Cc1ccc(-c2ccnc3[nH]c(=O)ccc23)c(F)c1)S(N)(=O)=O.Cl [Example 56, N-ethyl-N-(3-fluoro-4-(7-oxo-7,8-dihydro-1,8-naphthyridin-4-yl)benzyl)sulfamide hydrochloride] | < 1000 | B (1< Fold <2)
8 | C[C@@H](N)c1ccc(-c2ccnc3[nH]c(=O)ccc23)cc1.Cl [Example 15, (R)-5-(4-(1-aminoethyl)phenyl)-1,8-naphthyridin-2(1H)-one hydrochloride] | < 1000 | B (1< Fold <2)
9 | CN(Cc1ccc(-c2ccnc3[nH]c(=O)ccc23)c(F)c1)S(N)(=O)=O.Cl [Example 55, N-(3-fluoro-4-(7-oxo-7,8-dihydro-1,8-naphthyridin-4-yl)benzyl)-N-methylsulfamide hydrochloride] | < 1000 | B (1< Fold <2)
10 | NCCc1ccc(F)c(Nc2ccnc3[nH]c(=O)ccc23)c1 [Example 79, 5-((5-(2-aminoethyl)-2-fluorophenyl)amino)-1,8-naphthyridin-2(1H)-one dihydrochloride] | 1000 to 10000 | B (1< Fold <2)
11 | Cl.O=c1ccc2c(-c3cc4c(cc3F)CCNC4)ccnc2[nH]1 [Example 28, 5-(6-fluoro-1,2,3,4-tetrahydroisoquinolin-7-yl)-1,8-naphthyridin-2(1H)-one hydrochloride] | < 1000 | B (1< Fold <2)
12 | Cl.NS(=O)(=O)N1CCc2ccc(-c3ccnc4c3CCC(=O)N4)cc2C1 [Example 145, (7-(7-oxo-5,6,7,8-tetrahydro-1,8-naphthyridin-4-yl)-3,4-dihydroisoguinolin-2(1H)-yl)sulfamide hydrochloride] | < 1000 | B (1< Fold <2)
13 | Cl.NCc1ccc(-c2ccnc3[nH]c(=O)ccc23)cc1F [Example 12, 5-(4-(aminomethyl)-3-fluorophenyl)-1,8-naphthyridin-2(1H)-one hydrochloride] | < 1000 | A (>2)

Now from value to compound, other results behind:

Row | IC50 [1] [nM] | Compound | Cellular activity: increase in IRF3 by the compound compared to cGAMP, as fold [2]
14 | < 1000 | CN(Cc1ccc(-c2ccnc3[nH]c(=O)ccc23)cc1F)S(N)(=O)=O.Cl [Example 52, N-(2-fluoro-4-(7-oxo-7,8-dihydro-1,8-naphthyridin-4-yl)benzyl)-N-methylsulfamide hydrochloride] | B (1< Fold <2)
15 | < 1000 | CCN(CCc1cccc(Nc2ccnc3[nH]c(=O)ccc23)c1)S(N)(=O)=O [Example 94, N-ethyl-N-(3-((7-oxo-7,8-dihydro-1,8-naphthyridin-4-yl)amino)phenethyl)sulfamide dihydrochloride] | B (1< Fold <2)
16 | 1000 to 10000 | CNCc1ccc(-c2ccnc3[nH]c(=O)ccc23)cc1F.Cl [Example 23, 5-(3-fluoro-4-((methylamino)methyl)phenyl)-1,8-naphthyridin-2(1H)-one hydrochloride] | B (1< Fold <2)
17 | 1000 to 10000 | Cl.O=c1ccc2c(-c3ccc(CNC4CC4)c(F)c3)ccnc2[nH]1 [Example 25, 5-(4-((cyclopropylamino)methyl)-3-fluorophenyl)-1,8-naphthyridin-2(1H)-one hydrochloride] | A (>2)
18 | < 1000 | C[C@@H](c1ccc(-c2ccnc3[nH]c(=O)ccc23)cc1)N(C)S(N)(=O)=O [Example 61, (S)-(N-methyl-N-(1-(4-(7-oxo-7,8-dihydro-1,8-naphthyridin-4-yl)phenyl)ethyl)sulfamide hydrochloride] | B (1< Fold <2)
19 | < 1000 | Cl.NS(=O)(=O)N(Cc1ccc(-c2ccnc3[nH]c(=O)ccc23)cc1F)C1CC1 [Example 54, N-cyclopropyl-N-(2-fluoro-4-(7-oxo-7,8-dihydro-1,8-naphthyridin-4-yl)benzyl)sulfamide hydrochloride] | B (1< Fold <2)
20 | < 1000 | NS(=O)(=O)NCc1cccc(-c2ccnc3c2CCC(=O)N3)c1 [Example 140, N-(3-(7-oxo-5,6,7,8-tetrahydro-1,8-naphthyridin-4-yl)benzyl)sulfamide] | B (1< Fold <2)
21 | < 1000 | Cl.NCc1ccc(-c2ccnc3[nH]c(=O)ccc23)c(F)c1F [Example 13, 5-(4-(aminomethyl)-2,3-difluorophenyl)-1,8-naphthyridin-2(1H)-one hydrochloride] | A (>2)
22 | < 1000 | Cl.NCc1ccc(-c2ccnc3[nH]c(=O)ccc23)c(F)c1 [Example 11, 5-(4-(aminomethyl)-2-fluorophenyl)-1,8-naphthyridin-2(1H)-one hydrochloride] | A (>2)
23 | < 1000 | NS(=O)(=O)Nc1cc(-c2ccnc3[nH]c(=O)ccc23)ccc1F [Example 36, N-(2-fluoro-5-(7-oxo-7,8-dihydro-1,8-naphthyridin-4-yl)phenyl)sulfamide hydrochloride] | B (1< Fold <2)
24 | < 1000 | CC(N)c1ccc(-c2ccnc3[nH]c(=O)ccc23)cc1.Cl (stereo not drawn) [Example 14, 5-(4-(1-aminoethyl)phenyl)-1,8-naphthyridin-2(1H)-one hydrochloride] | B (1< Fold <2)
